Reference: article PMC4266903, “Hydroxylation index of omeprazole in relation to CYP2C19 polymorphism and sex in a healthy Iranian population” (DARU Journal of Pharmaceutical Sciences, 2014)
Read-outs that look alike come from different tables or passages of the source.

Columns and labels:
[1] = tested on: CYP2C19; conditions: cited from earlier work
[2] = Plasma concentration of omeprazole and hydroxyomeprazole by HPLC 3 hours after a single oral 20 mg omeprazole dose; assay type: in vivo, human; conditions: for concentration at 3 h: human, plasma, po, 20 mg, 3 h after single oral 20 mg omeprazole, read-out: Mean OMP concentration ± SD
From the text: (§1) The study protocol was approved by ethics committee of Tehran University of Medical Sciences (ethical no. 11208). Generally one hundred and eighty (60 women and 120 men) unrelated healthy Iranian volunteers with the mean age of between 20–55 years and average body weight of 45–89 kg took part in this study. All participants signed written informed consent of this project. The study was completed by contribution of faculties of pharmacy of Tehran, Yazd, Kermanshah and Kerman University of Medical Sciences. The participants were students or stuffs of pharmacy schools, with no history of any illness or medicine consumption. No smoking and consumption of medicine that would affect CYP2C19 activity was permitted for one week before and during the study.
(§2) After an overnight fast for at least 8 hours, volunteers took 20 mg omeprazole capsule (Abidi pharmaceuticals) with 250 milliliter tap water. Ten ml venous blood sample was collected from each subject 3 hours after administration of omeprazole and transferred into tubes containing 10 μl of 10% EDTA. Five ml of blood samples were centrifuged for 5 min at 4000 rpm and the plasma was separated and transferred to Eppendorf tube and stored at −80°C up to the day of analysis. The other 5 ml blood samples were stored directly in −80°C for genotyping analysis.
(§3) Omeprazole powder was purchased from TMAD (Iran). 5-hydroxyomeprazole was a kind donation by AstraZeneca (Sweden). The concentration of omeprazole and 5-hydroxyomeprazole was analyzed by HPLC method as described by Rezk et al. with a few modifications. Briefly 500 μl plasma was extracted by liquid-liquid extraction using 1500 μl ethyl acetate. After orbital mixing for 10 min and centrifuging at 4000 × g for 10 min, the upper organic layer was separated and transferred to glass tube and then evaporated to dryness under gentle stream of air. Finally the residue was dissolved in 250 μl mobile phase and 100 μl of this sample was injected to HPLC system. The mobile phase was a combination of dibasic sodium phosphate buffer (0.025 mol/lit, pH 6): acetonitrile: methanol (73: 18: 8 V/V/V). The HPLC apparatus consisted of a low pressure HPLC pump, UV detector (λ = 302 nm) all from Knauer (Berlin, Germany). The chromatographic separation was performed by using Chromolit™ Performance RP-18e 100 mm × 4.6 mm, 5 μm particle size. Flow rate was adjusted to 1 ml/min.

[3] = tested on: CYP2C19; assay: Omeprazole hydroxylation index (omeprazole/hydroxyomeprazole in plasma) as measure of CYP2C19 activity; assay type: in vivo, human; set-up: key to Median hydroxylation index / Median hydroxylation index (HI) / Mean HI ± SD: ratio: plasma omeprazole / 5-hydroxyomeprazole concentration at 3 h; conditions: for Mean HI ± SD: 3 h after single oral 20 mg omeprazole; for Median hydroxylation index: all genotypes
From the text: as §1, §2, §3
(§4) The allele frequencies differences between population were estimated using two-tailed Fisher’s exact test. The 95% confidence intervals (CI) were calculated using Confidence Interval Analysis software. The relation of sex and genotype was assessed by two tailed Fisher’s exact test. The observed and expected frequencies were calculated by using Hardy-Weinberg equation. The two-tailed Fisher’s exact test was used to evaluate deviation of genotype frequencies in the studied population from Hardy-Weinberg equilibrium. The enzyme activity was compared by using omeprazole hydroxylation index. The hydroxylation index (HI) of omeprazole 3 hours after administration of omeprazole was calculated by dividing omeprazole to 5-hydroxyomeprazol plasma concentration. The mean HI in different genotypes were compared by Mann–Whitney two tailed test. The impact of sex on HI of omeprazole was also evaluated using Mann–Whitney two tailed test. The inter-individual variability in metabolism of omeprazole was represented by probit plot. For drawing probit plot, the log of HI was calculated, the antimode value was determined using Microsoft office excel 2010. The normality of HI distribution was analyzed by frequency distribution histogram and also by Kolmogorov- Smirnov test. All statistical analyses were performed by Sigma Plot version 12.0 and Graph Pad Prism version 5 softwares and P < 0.05 was considered as statistically significant difference.

[4] = molecular target: T1, CYP2C19 (Homo sapiens, UniProt P33261); assay: as above; assay type: in vivo; set-up: key to Median hydroxylation index / Median hydroxylation index (HI) / Mean HI ± SD: ratio: plasma omeprazole / 5-hydroxyomeprazole concentration at 3 h
T1 construct: volunteers took 20 mg omeprazole capsule (Abidi pharmaceuticals) with 250 milliliter tap water; from tissue; host or cells: in vivo, endogenous enzyme of healthy human volunteers; metabolites measured in plasma
From the text: as §1, §2, §3, §4

[5] = set-up: method as in PMID 20804307; conditions: Iranian patients with erosive reflux esophagitis, cited from earlier work

T1 sequence (P33261 whole entry): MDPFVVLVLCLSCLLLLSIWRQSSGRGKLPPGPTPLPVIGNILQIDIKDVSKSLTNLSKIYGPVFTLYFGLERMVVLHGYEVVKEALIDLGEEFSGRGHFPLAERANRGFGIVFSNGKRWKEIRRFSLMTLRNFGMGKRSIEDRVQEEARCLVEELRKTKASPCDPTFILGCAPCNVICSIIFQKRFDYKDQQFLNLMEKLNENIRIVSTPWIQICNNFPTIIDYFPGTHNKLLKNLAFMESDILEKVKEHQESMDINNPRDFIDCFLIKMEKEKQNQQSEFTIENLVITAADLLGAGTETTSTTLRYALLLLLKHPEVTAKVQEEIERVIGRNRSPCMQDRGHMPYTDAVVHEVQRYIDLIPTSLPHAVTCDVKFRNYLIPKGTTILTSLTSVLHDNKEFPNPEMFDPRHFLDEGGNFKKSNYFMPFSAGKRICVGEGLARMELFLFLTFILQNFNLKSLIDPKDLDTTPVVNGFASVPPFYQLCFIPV

SMILES: COc1ccc2[nH]c([S+]([O-])Cc3ncc(C)c(OC)c3C)nc2c1 (stereo not drawn) [omeprazole]
- Antimode for HI of omeprazole ([1]; Colombians): 0.63
- Antimode for HI of omeprazole ([1]; Indian): 14.4
- Antimode for HI of omeprazole ([1]; Koreans): 7.0
- Mean HI, fold higher in CYP2C19*1*1 than CYP2C19*1*17 ([1]; Ramsjö et al.): 1.1 fold
- Mean HI, fold higher in CYP2C19*1*1 than CYP2C19*17*17 ([1]; Ramsjö et al.): 3.2 fold
- Median HI, fold higher in homozygous CYP2C19*1 than CYP2C19*1*17 carriers ([1]; Sim et al.): 1.2 fold
- Median HI, fold higher in homozygous CYP2C19*1 than homozygous CYP2C19*17 carriers ([1]; Sim et al.): 2 fold
- Antimode for HI of omeprazole ([1]; Thai population): 7.0
- Antimode for HI of omeprazole ([1]; West Mexicans): 3.98
- Omeprazole plasma concentration, women compared with men ([2]; 60 women vs 120 men, P > 0.05): not statistically different
- Mean omeprazole plasma concentration, fold higher in CYP2C19*2*2 than CYP2C19*1*1 ([2]; *2*2 vs *1*1, P < 0.001): 11 fold
- Mean omeprazole plasma concentration, fold higher in CYP2C19*2*2 than CYP2C19*17*17 ([2]; *2*2 vs *17*17, P < 0.001): 19.0 fold
- concentration at 3 h ([2]; both sexes, genotype 1*1, Total (75)): 125 ± 27.2 ng/mL
- concentration at 3 h ([2]; both sexes, genotype 1*2, Total (33)): 319 ± 150 ng/mL
- concentration at 3 h ([2]; both sexes, genotype 1*17, Total (52)): 118 ± 10.2 ng/mL
- concentration at 3 h ([2]; both sexes, genotype 2*2, Total (4)): 1390 ± 123 ng/mL
- concentration at 3 h ([2]; both sexes, genotype 2*17, Total (6)): 289 ± 97.5 ng/mL
- concentration at 3 h ([2]; both sexes, genotype 17*17, Total (10)): 71 ± 10.3 ng/mL
- concentration at 3 h ([2]; female, genotype 1*1, Women (22)): 128 ± 39.9 ng/mL
- concentration at 3 h ([2]; female, genotype 1*2, Women (13)): 365 ± 265 ng/mL
- concentration at 3 h ([2]; female, genotype 1*17, Women (15)): 120 ± 20.1 ng/mL
- concentration at 3 h ([2]; female, genotype 2*2, Women (3)): 1360 ± 133 ng/mL
- concentration at 3 h ([2]; female, genotype 2*17, Women (4)): 324 ± 39.9 ng/mL
- concentration at 3 h ([2]; female, genotype 17*17, Women (5)): 68.3 ± 5.73 ng/mL
- concentration at 3 h ([2]; male, genotype 1*1, Men (53)): 123 ± 20.8 ng/mL
- concentration at 3 h ([2]; male, genotype 1*2, Men (20)): 290 ± 168 ng/mL
- concentration at 3 h ([2]; male, genotype 1*17, Men (37)): 117 ± 16.1 ng/mL
- concentration at 3 h ([2]; male, genotype 2*2, Men (1)): 1480 ng/mL
- concentration at 3 h ([2]; male, genotype 2*17, Men (2)): 271 ± 119 ng/mL
- concentration at 3 h ([2]; male, genotype 17*17, Men (5)): 73.7 ± 13.7 ng/mL
- Omeprazole HI, women compared with men ([3]; 60 women vs 120 men, P > 0.05): not statistically different
- Median HI, fold higher in CYP2C19*1 homozygous than in CYP2C19*17 homozygous subjects ([3]; *1*1 vs *17*17, P < 0.001): 2.17 fold
- Median HI, fold higher in CYP2C19*1*17 than in CYP2C19*17*17 subjects ([3]; *1*17 vs *17*17, P < 0.001): 1.97 fold
- Mean HI ± SD ([3]; genotype 1*1, Men (53)): 0.89 ± 0.30
- Mean HI ± SD ([3]; genotype 1*1, Women (22)): 0.78 ± 0.27
- Mean HI ± SD ([3]; genotype 1*2, Men (20)): 2.29 ± 1.19
- Mean HI ± SD ([3]; genotype 1*2, Women (13)): 2.24 ± 0.79
- Mean HI ± SD ([3]; genotype 1*17, Men (37)): 0.77 ± 0.32
- Mean HI ± SD ([3]; genotype 1*17, Women (15)): 0.72 ± 0.18
- Mean HI ± SD ([3]; genotype 2*2, Men (1)): 14.25
- Mean HI ± SD ([3]; genotype 2*2, Women (3)): 13.37 ± 3.80
- Mean HI ± SD ([3]; genotype 2*17, Men (2)): 2.05 ± 0.67
- Mean HI ± SD ([3]; genotype 2*17, Women (4)): 1.97 ± 0.62
- Mean HI ± SD ([3]; genotype 17*17, Men (5)): 0.36 ± 0.04
- Mean HI ± SD ([3]; genotype 17*17, Women (5)): 0.34 ± 0.08
- Median hydroxylation index ([3]; men (120)): 0.86
- Median hydroxylation index ([3]; women (60)): 0.84
- Median hydroxylation index (HI) ([4]; CYP2C19 *1*1, 3 h after 20 mg omeprazole orally): 0.78
- Median hydroxylation index (HI) ([4]; CYP2C19 *1*17, 3 h after 20 mg omeprazole orally): 0.71
- Successful treatment response ([5]; EM genotype): 43%
- Successful treatment response ([5]; HetEM genotype): 95%
